Source: US20020028938A1, “Prostaglandin endoperoxide H synthase biosynthesis inhibitors” (priority 1997, published 2002)

What was measured:
[1] = target: T1, recombinant human Cox-2 (r-hu Cox-2) (Homo sapiens, UniProt P35354); experiment: Recombinant human PGHS-2 enzyme assay (RHUCX2); format: biochemical; conditions: for IC50: read-out: RHUCX2 IC50 (parenthetical value)
T1 construct: made in house; host or cells: baculovirus/Sf9 insect cells (microsomes)
T1 sequence (P35354 18-604): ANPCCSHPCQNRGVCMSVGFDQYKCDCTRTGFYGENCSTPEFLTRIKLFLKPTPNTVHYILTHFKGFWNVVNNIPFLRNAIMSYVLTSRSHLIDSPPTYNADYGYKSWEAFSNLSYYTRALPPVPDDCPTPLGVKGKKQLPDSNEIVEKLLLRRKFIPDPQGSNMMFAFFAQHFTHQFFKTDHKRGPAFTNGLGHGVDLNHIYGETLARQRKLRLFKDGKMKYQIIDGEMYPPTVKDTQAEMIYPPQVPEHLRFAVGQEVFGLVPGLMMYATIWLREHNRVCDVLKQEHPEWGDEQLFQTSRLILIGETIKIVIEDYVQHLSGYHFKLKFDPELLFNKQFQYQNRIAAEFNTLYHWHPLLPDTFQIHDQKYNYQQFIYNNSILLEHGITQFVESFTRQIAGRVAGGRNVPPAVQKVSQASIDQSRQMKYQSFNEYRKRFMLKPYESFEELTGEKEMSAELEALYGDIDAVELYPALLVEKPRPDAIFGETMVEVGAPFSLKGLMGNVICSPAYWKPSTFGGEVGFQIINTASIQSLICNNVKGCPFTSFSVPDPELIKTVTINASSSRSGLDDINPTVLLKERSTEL
Method: (§1) To compare the mean responses of the treatment groups, analysis of variance was applied. Percent inhibition values were determined by comparing the individual treatment mean values to the mean of the control group. Linear regression was used to estimate IC50's/ED50's in appropriate assays.
(§2) EIA reagents for prostaglandin determination were purchased from Perseptive Diagnostics, (Cambridge, Mass.). Prostaglandin E2 (PGE2) levels in lavage fluids were determined after the samples were dried under nitrogen and reconstituted with assay buffer. PGE2 levels in enzyme assays or cell culture media were measured against standards prepared in the same milieu. The immunoassays were conducted as recommended by the manufacturer. The EIA was conducted in 96 well microtiter plates (Nunc Roskilde, Denmark) and optical density was measured using a microplate reader (Vmax, Molecular Devices Corp., Menlo Park, Calif.).
(§3) Inhibition of prostaglandin biosynthesis in vitro was evaluated using recombinant human Cox-1 (r-hu Cox1) and Cox-2 (r-hu Cox-2) enzyme assays. […] The reaction was allowed to run for 2.5 minutes at room temperature prior to quenching with HCl and neutralization with NaOH. PGE2 production in the presence and absence of the drug was determined by EIA analysis. The EIA was conducted in 96 well microtiter plates (Nunc Roskilde, Denmark) and optical density was measured using a microplate reader (Vmax, Molecular Devices Corp., Menlo Park, Calif.). EIA reagents for prostaglandin determination were purchased from Perseptive Diagnostics (Cambridge, Mass.). PGE2 levels were measured against standards prepared in the same milieu. The immunoassays were conducted as recommended by the manufacturer.

[2] = target: T2, recombinant human Cox-1 (r-hu Cox1) (Homo sapiens, UniProt P23219); experiment: Recombinant human PGHS-1 enzyme assay (RHUCX1); format: biochemical
T2 construct: made in house; host or cells: baculovirus/Sf9 insect cells (microsomes)
Method: as §1, §2, §3

T2 sequence (P23219 24-599): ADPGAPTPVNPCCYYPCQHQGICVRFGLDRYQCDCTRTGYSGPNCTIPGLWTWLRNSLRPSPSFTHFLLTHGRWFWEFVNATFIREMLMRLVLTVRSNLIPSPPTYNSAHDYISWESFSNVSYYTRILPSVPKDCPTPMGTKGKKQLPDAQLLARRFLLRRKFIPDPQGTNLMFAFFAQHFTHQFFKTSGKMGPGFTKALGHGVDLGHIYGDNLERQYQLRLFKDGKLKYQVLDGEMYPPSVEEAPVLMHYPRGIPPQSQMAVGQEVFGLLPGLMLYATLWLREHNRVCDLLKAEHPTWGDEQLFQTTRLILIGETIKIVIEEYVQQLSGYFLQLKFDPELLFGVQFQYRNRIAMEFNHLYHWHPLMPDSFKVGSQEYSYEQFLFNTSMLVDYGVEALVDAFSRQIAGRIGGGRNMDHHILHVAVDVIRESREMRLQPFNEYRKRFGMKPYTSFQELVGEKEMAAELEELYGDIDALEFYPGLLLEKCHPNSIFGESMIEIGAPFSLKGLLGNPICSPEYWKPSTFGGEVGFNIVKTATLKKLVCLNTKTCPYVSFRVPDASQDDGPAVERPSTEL

Row | Compound | RHUCX1 % Inh. at Dose (μM) ([2]; 100 μM) | RHUCX2 % Inh. at Dose (μM) ([1]; 0.1 μM) | melting point | also measured
1 | 2-(2,2,2-Trifluoroethyl)-4-(4-methoxyphenoxy)-5-[4-(methylsulfonyl)phenyl]-3(2H)-pyridazinone [Example 262] | 15 @ 100% | – | – | IC50 [1]: 432 nM
2 | 2-(2-Hexyl)-4-(4-fluorophenyl)-5-[4-(methylsulfonyl)phenyl]-3(2H)-pyridazinone [Example 118] | 31 @ 100% | 72 @ 0.1% | – | RHUCX2 % Inh. at Dose (μM) ([1]; 0.01 μM): 17 @ 0.01%
3 | 2-(3-Chlorophenyl)-4-(cyclopentylmethyl)-5-[4-(methylsulfonyl)phenyl]-3(2H)-pyridazinone [Example 364] | 0 @ 100% | 0 @ 0.1% | – | RHUCX2 % Inh. at Dose (μM) ([1]; 1 μM): 86 @ 1%
4 | CS(=O)(=O)c1ccc(-c2cnn(CC#Cc3ccccc3)c(=O)c2-c2ccc(F)cc2)cc1 [Example 21, 2-(Phenylpropargyl)-4-(4-fluorophenyl)-5-[4-(methylsulfonyl)phenyl]-3(2H)-pyridazinone] | 19 @ 100% | – | – | IC50 [1]: 920 nM
5 | C=C(C)Cn1ncc(-c2ccc(S(C)(=O)=O)cc2)c(-c2ccc(F)cc2)c1=O [Example 23, 2-(Methyl-2-propenyl)-4-(4-fluorophenyl)-5-[4-(methylsulfonyl)phenyl]-3(2H)-pyridazinone] | 0 @ 100% | 68 @ 0.1% | – | RHUCX2 % Inh. at Dose (μM) ([1]; 0.01 μM): 27 @ 0.01%
6 | CS(=O)(=O)c1ccc(-c2cnn(Cc3ccccc3)c(=S)c2-c2ccc(F)cc2)cc1 [Example 32, 2-Benzyl-4-(4-fluorophenyl)-5-[4-(methylsulfonyl)phenyl]-3(2H)-pridazinethione] | 20 @ 100% | 83 @ 0.1% | – | RHUCX2 % Inh. at Dose (μM) ([1]; 1 μM): 96 @ 1%
7 | CS(=O)(=O)c1ccc(-c2cnn(CC(=O)c3ccc(F)cc3F)c(=O)c2-c2ccc(F)cc2)cc1 [Example 41, 2-(2,4-Difluorophenacyl)-4-(4-fluorophenyl)-5-[4-(methylsulfonyl)phenyl]-3(2H)-pyrdazinone] | 13 @ 100% | 17 @ 0.1% | – | RHUCX2 % Inh. at Dose (μM) ([1]; 1 μM): 49 @ 1%
8 | CS(=O)(=O)c1ccc(-c2cnn(Cc3ccc(Cl)s3)c(=O)c2-c2ccc(F)cc2)cc1 [Example 42] | 0 @ 100% | 92 @ 0.1% | – | RHUCX2 % Inh. at Dose (μM) ([1]; 1 μM): 99 @ 1%
9 | C#CCn1ncc(-c2ccc(S(C)(=O)=O)cc2)c(-c2ccc(F)cc2)c1=O [Example 48, 2-(Propargyl)-4-(4-fluorophenyl)-5-[4-(methylsulfonyl)phenyl]-3(2H)-prridazinone] | 0 @ 100% | 2 @ 0.1% | – | RHUCX2 % Inh. at Dose (μM) ([1]; 1 μM): 73 @ 1%
10 | CS(=O)(=O)c1ccc(-c2cnn(Cc3ccsc3)c(=O)c2-c2ccc(F)cc2)cc1 [Example 60] | 7 @ 100% | – | – | RHUCX2 % Inh. at Dose (μM) ([1]; 1,000 μM): 100 @ 1,000%
11 | Cc1nn(CC(F)(F)F)c(=O)c(-c2ccc(F)cc2)c1-c1ccc(S(C)(=O)=O)cc1 [Example 64] | – | 36 @ 0.1% | – | RHUCX2 % Inh. at Dose (μM) ([1]; 1 μM): 34 @ 1%; RHUCX1 % Inh. at Dose (μM) ([2]; 1 μM): 68 @ 1%
12 | CS(=O)(=O)c1ccc(-c2cnn(CC(F)(F)F)c(=O)c2OC2CCCCC2)cc1 [Example 84] | – | – | – | RHUCX2 % Inh. at Dose (μM) ([1]; 0.3 μM): 87 @ 0.3%; RHUCX1 % Inh. at Dose (μM) ([2]; 1 μM): 9 @ 1%; RHUCX1 % Inh. at Dose (μM) ([2]; 10 μM): 49 @ 10%
13 | CS(=O)(=O)c1ccc(-c2cnn(CC(F)=C(F)F)c(=O)c2-c2ccc(F)cc2)cc1 [Example 88] | 0 @ 100% | 35 @ 0.1% | – | RHUCX2 % Inh. at Dose (μM) ([1]; 1,000 μM): 97 @ 1,000%
14 | CC(C)(O)CCOc1c(-c2ccc(S(N)(=O)=O)cc2)cnn(-c2ccc(F)c(Cl)c2)c1=O [Example 474, 2-(3-Chloro-4-fluorophenyl)-4-(3-hydroxy-3-methyl-1-butoxy)-5-[4-(aminosulfonyl)phenyl]-3(2H)-pyridazinone] | – | – | 59 to 62 °C | –
15 | CC(C)(O)COc1c(-c2ccc(S(C)(=O)=O)cc2)cnn(-c2ccc(F)c(Cl)c2)c1=O [Example 479, 2-(3-Chloro-4-fluorophenyl)-4-(2-hydroxy-2-methyl-1-propoxy)-5-[4-(methylsulfonyl)phenyl]-3(2H)-pyridazinone] | – | – | 122 to 124 °C | –
16 | CC(C)(O)COc1c(-c2ccc(S(N)(=O)=O)cc2)cnn(-c2ccc(F)c(Cl)c2)c1=O [Example 480, 2-(3-Chloro-4-fluorophenyl)-4-(2-hydroxy-2-methyl-1-propoxy)-5-[4-(aminosulfonyl)phenyl]-3(2H)-pyridazinone] | – | – | 176 to 178 °C | –
17 | CC(C)(CO)COc1c(-c2ccc(S(C)(=O)=O)cc2)cnn(-c2ccc(F)c(F)c2)c1=O [Example 510, 2-(3,4-Difluorophenyl)-4-(3-hydroxy-2,2-dimethyl-1-propoxy)-5-[4-(methylsulfonyl)phenyl]-3(2H)-pyridazinone] | – | – | 161 to 162 °C | –
18 | CC(C)(O)CCOc1c(-c2ccc(S(C)(=O)=O)cc2)cnn(-c2ccc(Cl)c(Cl)c2)c1=O [Example 532, 2-(3,4-Dichlorophenyl)-4-(3-hydroxy-3-methyl-1-butoxy)-5-[4-(methylsulfonyl)phenyl]-3(2H)-pyridazinone] | – | – | 118 to 120 °C | –
19 | CC(C)COc1c(-c2ccc(S(C)(=O)=O)cc2)cnn(-c2ccc(F)c(Cl)c2)c1=O [Example 537, 2-(3-Chloro-4-fluorophenyl)-4-(2-methyl-1-propoxy)-5-[4-(methylsulfonyl)phenyl]-3(2H)-pyridazinone] | – | – | 116 to 120 °C | –
20 | CC(C)CCOc1c(-c2ccc(S(C)(=O)=O)cc2)cnn(-c2ccc(F)c(Cl)c2)c1=O [Example 538, 2-(3-Chloro-4-fluorophenyl)-4-(3-methyl-1-butoxy)-5-[4-(methylsulfonyl)phenyl]-3(2H)-pyridazinone] | – | – | 148 to 152 °C | –
21 | CC(C)COc1c(-c2ccc(S(C)(=O)=O)cc2)cnn(-c2ccc(Cl)c(Cl)c2)c1=O [Example 539, 2-(3,4-Dichlorophenyl)-4-(2-methyl-1-propoxy)-5-[4-(methylsulfonyl)phenyl]-3(2H)-pyridazinone] | – | – | 127 to 129 °C | –
22 | CC(C)CCOc1c(-c2ccc(S(C)(=O)=O)cc2)cnn(-c2ccc(Cl)c(Cl)c2)c1=O [Example 540, 2-(3,4-Dichlorophenyl)-4-(3-methyl-1-butoxy)-5-[4-(methylsulfonyl)phenyl]-3(2H)-pyridazinone] | – | – | 130 to 134 °C | –
23 | CS(=O)(=O)c1ccc(-c2cnn(-c3ccc(F)c(F)c3)c(=O)c2OCCCCO)cc1 [Example 541, 2-(3,4-Difluorophenyl)-4-(4-hydroxy-1-butoxy)-5-[4-(methylsulfonyl)phenyl]-3(2H)-pyridazinone] | – | – | 110 to 113 °C | –
24 | CC(C)COc1c(-c2ccc(S(C)(=O)=O)cc2)cnn(-c2cccc(C(F)(F)F)c2)c1=O [Example 542, 2-[3-(Trifluoromethyl)phenyl]-4-(2-methyl-1-propoxy)-5-[4-(methylsulfonyl)phenyl]-3(2H)-pyridazinone] | – | – | 125 to 127 °C | –
25 | CC(C)CCOc1c(-c2ccc(S(C)(=O)=O)cc2)cnn(-c2cccc(C(F)(F)F)c2)c1=O [Example 543, 2-[3-(Trifluoromethyl)phenyl]-4-(3-methyl-1-butoxy)-5-[4-(methylsulfonyl)phenyl]-3(2H)-pyridazinone] | – | – | 82 to 85 °C | –
26 | CC(C)(O)CCOc1c(-c2ccc(S(C)(=O)=O)cc2)cnn(-c2cccc(C(F)(F)F)c2)c1=O [Example 544, 2-[3-(Trifluoromethyl)phenyl]-4-(3-hydroxy-3-methyl-1-butoxy)-5-[4-(methylsulfonyl)phenyl]-3(2H)-pyridazinone] | – | – | 90 to 93 °C | –
27 | C[C@H](O)CCOc1c(-c2ccc(S(C)(=O)=O)cc2)cnn(-c2ccc(F)c(F)c2)c1=O [Example 546, (S)-2-(3,4-Difluorophenyl)-4-(3-hydroxy-1-butoxy)-5-[4-(methylsulfonyl)phenyl]-3(2H)-pyridazinone] | – | – | 128 to 130 °C | –
